# Laboratory results taken from patent US8029553B2, “Portable laser and process for pain research” (priority 2004, dated 2011).
# Entries after “also recorded” stand apart in the source; their conditions may differ.
# Legend:
# TRPV1 = biological target: T1, TRPV1 (Rattus norvegicus, UniProt O35433); assay: Whole cell patch recording of diode laser evoked inward currents in TRPV1 positive (type 2) DRG cells; assay type: cell-based; settings: capsazepine 10 uM, close superfusion, two minute application; laser pulses 20 ms and 2.41 W (1200 mA)
# T1 construct: DRG cells TRPV1 positive cells (Type 2) and TRPV2 positive cells (Type 4) were irradiated; from tissue; host or cells: primary neurons dissociated from rat dorsal root ganglia (type 2 cells)
# T1 sequence (O35433 whole entry, the tested form may be a part): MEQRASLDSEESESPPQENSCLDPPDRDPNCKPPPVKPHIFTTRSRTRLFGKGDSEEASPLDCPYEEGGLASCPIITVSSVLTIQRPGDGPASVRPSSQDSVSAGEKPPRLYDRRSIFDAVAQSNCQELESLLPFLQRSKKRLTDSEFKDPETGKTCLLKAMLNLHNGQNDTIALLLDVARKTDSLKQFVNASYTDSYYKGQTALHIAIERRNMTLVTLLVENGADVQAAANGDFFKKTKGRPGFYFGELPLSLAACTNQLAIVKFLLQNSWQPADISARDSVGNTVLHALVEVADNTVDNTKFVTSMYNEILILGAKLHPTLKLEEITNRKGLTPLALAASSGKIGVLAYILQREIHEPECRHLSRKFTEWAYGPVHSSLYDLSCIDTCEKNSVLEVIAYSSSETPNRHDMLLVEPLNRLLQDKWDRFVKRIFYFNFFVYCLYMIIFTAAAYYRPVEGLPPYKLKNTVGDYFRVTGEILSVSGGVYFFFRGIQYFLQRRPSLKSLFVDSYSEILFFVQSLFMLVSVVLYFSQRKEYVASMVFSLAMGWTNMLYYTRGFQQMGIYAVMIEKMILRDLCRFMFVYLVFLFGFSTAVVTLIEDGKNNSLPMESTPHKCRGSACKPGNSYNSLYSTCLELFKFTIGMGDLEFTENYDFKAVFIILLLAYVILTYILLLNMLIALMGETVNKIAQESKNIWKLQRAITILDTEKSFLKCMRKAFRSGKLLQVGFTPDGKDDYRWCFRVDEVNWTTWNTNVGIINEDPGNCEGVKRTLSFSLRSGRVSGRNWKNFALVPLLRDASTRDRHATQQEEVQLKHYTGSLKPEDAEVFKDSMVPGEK
# Method: Rats were anesthetized with halothane. Following decapitation, the spinal cord was rapidly removed, and the dorsal root ganglia were dissected free. Dissected ganglia were placed in a heated bath (35° C. for 70 min) containing dispase II and collagenase (2 mg/ml; Sigma type 1). Following wash and trituration, recovered cells were plated on 10 polylysine coated, 35 mm Petri dishes. Cells were bathed continuously in a rat Tyrode's solution containing (mM): 140 NaCl, 4 KCl, 2 MgCl2, 2 CaCl2, 10 glucose, and 10 HEPES, pH adjusted to 7.4 with NaOH. Only one cell was used from each dish. Bath temperature was maintained at 32° C. by a feedback-controlled bath heater (TCbip; Cell Microsystems).
# Electrodes were prepared (2-4 MΩ) from glass pipettes using a Brown and Flaming type horizontal puller (Sutter model P87). Whole cell recordings were made with an Axopatch 200B (Axon Instruments). Stimuli were controlled and digital records captured with pClamp 8.2 software and Digidata 1322A A/D converter (Axon Instruments). Series resistance (Rs) was compensated 40-60% with Axopatch 200B compensation circuitry. Whole cell resistance and capacitance was determined by Clampex 8.2 software utility. A liquid junction potential of approximately 4 mV was not corrected.
# Recordings were made from cells with diameters between 25 and 45 μm.
# Lass 10 M investigational diode laser (Lasmed LLC) was used in all studies. […]
# C fiber mediated pain = settings: background statement; cited from earlier work
# C fibers = assay: Threshold pulse duration for hot pain by 980 nm diode laser, stimulation of C fibers; assay type: in vivo, human; settings: healthy volunteer affected by topical capsaicin
# Method: Subjects: A chronic pain patient with hypersensitivity and a healthy volunteer were tested. Both subjects gave informed consent and the experiments were approved by the local institutional review board. The hairy skin of left hand was used for both volunteers. In preparing the subjects testing, they were asked to respond orally immediately after they perceived any threshold sensation and/or to interrupt lasing pulse by pressing STOP button. They then described the level and type of evoked sensation, location of sensation, how long the sensation lasted, whether the sensation was single (monomodal) sensation or if there were more than one evoked sensations by a single stimulation. Afterwards, the threshold pulse was applied 3 times to different areas with interval of ˜3 min or after the previous sensation (pain) had disappeared. The appearance redness was an indication of skin irritation. Step 1: To test duration of pulse that evoked threshold warmth sensation only, the output power was set to 1.5 W, beam size adjusted to 5 mm. The pulse was applied to the skin. When the volunteer reported warmth (pain) sensation the lasing was stopped. […] The pulse duration for tolerance for hot pain was 2000 ms. […] When this button was pushed the command “stop lasing” was activated, duration of applied pulse was measured and it was indicated on the screen of PC connected to the device by RS232 interface. […]
structure (smiles),measurement,setting,value
Oc1cc2c(cc1O)CN(C(=S)NCCc1ccc(Cl)cc1)CCC2 [capsazepine],currents evoked by 980 nm stimuli,TRPV1,dramatically reduced; also recorded: reduced currents
CN1CC[C@]23c4c5ccc(O)c4O[C@H]2[C@@H](O)C=C[C@H]3[C@H]1C5 [morphine],effectiveness in inhibiting C fiber mediated pain compared with A delta fiber mediated pain,C fiber mediated pain,much more effective
COc1cc(CNC(=O)CCCC/C=C/C(C)C)ccc1O [Capsaicin],threshold pulse duration by reflex time monitored with infrared CCD camera,"C fibers; 1.5 W, 5 mm, without delay of individual reaction (1270 ms without capsaicin)",650 ms
same,threshold pulse duration for hot pain,"C fibers; output power 1.5 W, beam size 5 mm, hairy skin of left hand, lasing stopped by volunteer (1300 ms without capsaicin)",800 ms
